Experimental data published in patent US20220395496A1 (Hoffmann-La Roche Inc., priority 2019, published 2022).

molecular target: T1, human TLR7 (Homo sapiens, UniProt Q9NYK1); test: HEK293-Blue-hTLR-7 cells assay (SEAP reporter, R848 stimulation); type: cell-based; conditions: HEK293-Blue-hTLR7 cells, R848, 20 hrs; lowest tested concentration 0.0032
T1 sequence (Q9NYK1 27-1049): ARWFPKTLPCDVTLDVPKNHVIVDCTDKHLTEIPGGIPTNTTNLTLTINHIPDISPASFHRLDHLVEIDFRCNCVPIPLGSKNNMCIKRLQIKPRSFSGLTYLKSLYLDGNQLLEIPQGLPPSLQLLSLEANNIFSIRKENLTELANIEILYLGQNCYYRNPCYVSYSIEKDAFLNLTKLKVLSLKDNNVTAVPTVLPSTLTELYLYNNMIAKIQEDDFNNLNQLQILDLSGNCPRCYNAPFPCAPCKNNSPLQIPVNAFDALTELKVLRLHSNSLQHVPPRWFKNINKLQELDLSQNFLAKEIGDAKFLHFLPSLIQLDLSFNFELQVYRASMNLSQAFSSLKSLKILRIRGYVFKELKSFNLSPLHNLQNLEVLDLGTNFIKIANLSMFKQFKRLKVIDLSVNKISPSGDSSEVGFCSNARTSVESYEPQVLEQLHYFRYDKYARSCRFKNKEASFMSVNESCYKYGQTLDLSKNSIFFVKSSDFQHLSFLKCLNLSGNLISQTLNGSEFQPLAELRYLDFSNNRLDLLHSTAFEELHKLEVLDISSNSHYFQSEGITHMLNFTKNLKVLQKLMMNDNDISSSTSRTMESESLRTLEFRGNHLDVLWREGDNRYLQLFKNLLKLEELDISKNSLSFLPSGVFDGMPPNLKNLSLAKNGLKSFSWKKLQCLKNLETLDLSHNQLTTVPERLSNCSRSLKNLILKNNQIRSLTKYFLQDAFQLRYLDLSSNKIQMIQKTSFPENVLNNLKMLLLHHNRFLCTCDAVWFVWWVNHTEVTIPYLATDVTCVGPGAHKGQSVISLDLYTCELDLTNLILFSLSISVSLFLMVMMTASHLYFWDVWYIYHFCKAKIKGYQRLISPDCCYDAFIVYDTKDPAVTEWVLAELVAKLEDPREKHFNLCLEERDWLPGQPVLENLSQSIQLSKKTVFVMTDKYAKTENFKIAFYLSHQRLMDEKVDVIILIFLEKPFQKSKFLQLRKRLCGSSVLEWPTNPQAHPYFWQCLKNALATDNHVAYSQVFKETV
Protocol: The following tests were carried out in order to determine the activity of the compounds of this invention in HEK293-Blue-hTLR-7/8/9 cells assay.
HEK293-Blue-hTLR-7 Cells Assay:
A stable HEK293-Blue-hTLR-7 cell line was purchased from InvivoGen (Cat. #: hkb-htlr7, San Diego, Calif., USA). These cells were originally designed for studying the stimulation of human TLR7 by monitoring the activation of NF-κB. A SEAP (secreted embryonic alkaline phosphatase) reporter gene was placed under the control of the IFN-β minimal promoter fused to five NF-κB and AP-1-binding sites. The SEAP was induced by activating NF-κB and AP-1 via stimulating HEK-Blue hTLR7 cells with TLR7 ligands. Therefore the reporter expression was declined by TLR7 antagonist under the stimulation of a ligand, such as R848 (Resiquimod), for incubation of 20 hrs. The cell culture supernatant SEAP reporter activity was determined using QUANTI-Blue™ kit (Cat. #: rep-qb1, Invivogen, San Diego, Calif., USA) at a wavelength of 640 nm, a detection medium that turns purple or blue in the presence of alkaline phosphatase.
HEK293-Blue-hTLR7 cells were incubated at a density of 250,000˜450,000 cells/mL in a volume of 170 μL in a 96-well plate in Dulbecco's Modified Eagle's medium (DMEM) containing 4.5 g/L glucose, 50 U/mL penicillin, […], […], 2 mM L-glutamine, 10% (v/v) heat-inactivated fetal bovine serum with addition of 20 μL test compound in a serial dilution in the presence of final DMSO at 1% and 10 μL of 20 uM R848 in above DMEM, perform incubation under 37° C. in a CO2 incubator for 20 hrs. Then 20 μL of the supernatant from each well was incubated with 180 μL Quanti-blue substrate solution at 37° C. for 2 hrs and the absorbance was read at 620-655 nm using a spectrophotometer. The signalling pathway that TLR7 activation leads to downstream NF-κB activation has been widely accepted, and therefore similar reporter assay was modified for evaluating TLR7 antagonist.

Row | IC50 | Structure (SMILES)
1 | 16 nM | C[C@H]1C[C@@H](NCc2ccc3c(n2)CCNC3)CN(c2ccc(C#N)c3ncccc23)C1 [Example 30, 5-[(3S,5R)-3-methyl-5-(5,6,7,8-tetrahydro-1,6-naphthyridin-2-ylmethylamino)-1-piperidyl]quinoline-8-carbonitrile]
2 | ≤ 3 nM | C[C@H]1C[C@@H](NCc2cnc(N3CCNCC3)cn2)CN(c2ccc(C#N)c3ncccc23)C1 [Example 31, 5-[(3S,5R)-3-methyl-5-[(5-piperazin-1-ylpyrazin-2-yl)methylamino]-1-piperidyl]quinoline-8-carbonitrile]

Continued, compound first:

Row | Structure (SMILES) | IC50
3 | C[C@H]1C[C@@H](NCc2cnc(N3CCN[C@@H](C)C3)nc2)CN(c2ccc(C#N)c3ncccc23)C1 [Example 29, 5-[(3S,5R)-3-methyl-5-[[2-[(3S)-3-methylpiperazin-1-yl]pyrimidin-5-yl]methylamino]-1-piperidyl]quinoline-8-carbonitrile] | 8 nM
4 | C[C@H]1C[C@@H](NCc2ccccc2)CN(c2ccc(C#N)c3ncccc23)C1 [Example R1, reference compound] | 89 nM
5 | C[C@H]1C[C@@H](N2Cc3ccccc3C2)CN(c2ccc(C#N)c3ncccc23)C1 [Example R2, reference compound] | 48 nM
